{
  "source": "patent US20200392239A1",
  "about": "“USE OF A MULTIMERIC ANTI-DR5 BINDING MOLECULE IN COMBINATION WITH A CHEMOTHERAPEUTIC AGENT FOR TREATING CANCER” (IGM Biosciences, Inc., priority 2018, published 2020)",
  "molecules": {"B1": {"name": "anti-DR5 IgM Mab #2: anti-DR5 IgM comprising VH and VL SEQ ID NO: 5 and SEQ ID NO: 6, constructed as in US 2018-0009897 (antibody, V domains shown)", "VH": "QVQLQESGPGLVKPSQTLSLTCTVSGGSISSGDYFWSWIRQLPGKGLECIGHIHNSGTTYYNPSLKSRVTISVDTSKKQFSLRLSSVTAADTAVYYCARDRGGDYYYGMDVWGQGTTVTVSS", "VL": "EIVLTQSPGTLSLSPGERATLSCRASQGISRSYLAWYQQKPGQAPSLLIYGASSRATGIPDRFSGSGSGTDFTLTISRLEPEDFAVYYCQQFGSSPWTFGQGTKVEIK", "modifications": "IgM constant regions"}},
  "key": {"[1]": {"settings": "reason for not progressing in clinical development; cited from earlier work"}, "HCT15 tumor cells": {"test_system": "HCT15 tumor cells", "experiment": "HCT15 tumor model in athymic nude mice (IgG resistant colon tumor model)", "assay_type": "in vivo", "settings": "3 mg/kg IgM 5 times daily i.v.; compared with 3 mg/kg anti-DR5 IgG and 80 mg/kg Irinotecan", "protocol": "Combination therapy with an anti-DR5 IgM antibody and standard of care Irinotecan was assessed in an HCT15 tumor model as follows.\nIn the first experiment, anti-DR5 IgG, anti-DR5 IgM, and Irinotecan monotherapies were compared. Athymic nude mice were subcutaneously implanted with 1×10^7 HCT15 tumor cells.\nWhen the tumors reached 150-200 mm^3, the animals were dosed intravenously with either vehicle 5 times daily, 3 mg/kg of anti-DR5 IgM 5 times daily, 80 mg/kg of Irinotecan (Sigma I1406) 3 times within the first week, or the combined anti-DR5 IgM and Irinotecan dosing regimens."}},
  "data": [
    {"molecule": "CC1(C)CCC(c2ccc(Cl)cc2)=C(CN2CCN(c3ccc(C(=O)NS(=O)(=O)c4ccc(N[C@H](CCN5CCOCC5)CSc5ccccc5)c(S(=O)(=O)C(F)(F)F)c4)cc3)CC2)C1", "note": "[ABT-263, 4-(4-{[2-(4-Chlorophenyl)-5,5-dimethyl-1-cyclohexen-1-yl]methyl}-1-piperazinyl)-N-[(4-{[(2R)-4-(4-morpholinyl)-1-(phenylsulfany)-2-butanyl]amino}-3-[(trifluoromethyl)sulfonyl]phenyl)sulfonyl]benzamide]", "values": [
      {"measurement": "side effects", "setting": "[1]", "value": "dose-limiting side effects"}
    ]},
    {"molecule": "CN(C)CC[C@H](CSc1ccccc1)Nc1ccc(S(=O)(=O)NC(=O)c2ccc(N3CCN(Cc4ccccc4-c4ccc(Cl)cc4)CC3)cc2)cc1[N+](=O)[O-]", "note": "[ABT-737, 4-{4-[(4′-Chloro-2-biphenylyl)methyl]-1-piperazinyl}-N-[(4-{[(2R)-4-(dimethylamino)-1-(phenylsulfanyl)-2-butanyl]amino}-3-nitrophenyl)sulfonyl]benzamide]", "values": [
      {"measurement": "bioavailability", "setting": "[1]", "value": "low"},
      {"measurement": "solubility", "setting": "[1]", "value": "low"}
    ]},
    {"molecule": "B1", "values": [
      {"measurement": "efficacy of monotherapies (tumor volume, overall survival)", "setting": "HCT15 tumor cells", "value": "most effective"}
    ]}
  ]
}
